How the values were obtained:
Assay type in all cases: in vivo
[1] = tested on: johnsongrass (Sorghum halepense, SORHA); assay: Post-emerge test, greenhouse herbicide activity screening; settings: post-emerge, 14 days after application, rating scale 0-100
Outline: (§1)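 Fourteen days after spraying, crop and weed injury was graded visually from 0, no effect, to 100, every plant dead. Test substances were dissolved in acetone and applied at 15–1000 g ai/ha with a flat-fan nozzle. Application was either pre-emergence, one day after sowing, or post-emergence at the 2–3 leaf stage.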

[2] = tested on: sicklepod (Cassia obtusifolia, CASOB); assay: as above; settings: post-emerge, 14 days after application, rating scale 0-100
Outline: as §1

[3] = tested on: velvetleaf (Abutilon theophrasti, ABUTH); assay: as above; settings: post-emerge, 14 days after application, rating scale 0-100
Outline: as §1

[4] = tested on: ivyleaf morningglory (Ipomoea hederacea, IPOHE); assay: as above; settings: post-emerge, 14 days after application, rating scale 0-100
Outline: as §1

[5] = tested on: large crabgrass (Digitaria sanguinalis, DIGSA); assay: as above; settings: post-emerge, 14 days after application, rating scale 0-100
Outline: as §1

[6] = tested on: barnyardgrass (Echinochloa crus-galli, ECHCG); assay: as above; settings: post-emerge, 14 days after application, rating scale 0-100
Outline: as §1

[7] = tested on: green foxtail (Setaria viridis, SETVI); assay: as above; settings: post-emerge, 14 days after application, rating scale 0-100
Outline: as §1

[8] = tested on: redroot pigweed (Amaranthus retroflexus, AMARE); assay: as above; settings: post-emerge, 14 days after application, rating scale 0-100
Outline: as §1

[9] = tested on: lambsquarters (Chenopodium album, CHEAL); assay: as above; settings: post-emerge, 14 days after application, rating scale 0-100
Outline: as §1

[10] = tested on: redroot pigweed (Amaranthus retroflexus, AMARE); assay: Pre-emerge test, greenhouse herbicide activity screening; settings: pre-emerge, 14 days after application, scale 0-100
Outline: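 Rating: 0–100 visual injury, 14 DAA. Application: acetone, 187 l/ha, 15–1000 g ai/ha, flat-fan track sprayer with nozzle 40–45 cm above soil or canopy. Post-emerge runs used 0.25% v/v surfactant on 2–3 leaf plants.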

[11] = tested on: upland rice (Oryza sp., var. Tebonnet, RICE); assay: Post-emerge test, crop safety; settings: post-emerge, 14 days after application, rating scale 0-100
Outline: (§2)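 Visual ratings on a 0-100 scale (0 no damage, 100 all plants dead) were taken at 14 days after treatment. Rates of 15-1000 g ai/ha in acetone, 187 l/ha, were sprayed onto soil one day after planting (pre-emerge) or onto 2-3 leaf plants with 0.25% v/v surfactant (post-emerge).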

[12] = tested on: field corn (Zea mays L., var. Dekalb 535, CORN); assay: Post-emerge test, crop safety; settings: post-emerge, 14 days after application, rating scale 0-100
Outline: as §2

[13] = tested on: johnsongrass (Sorghum halepense, SORHA); assay: Pre-emerge test, greenhouse herbicide activity screening; settings: pre-emerge, 14 days after application, scale 0-100
Outline: as §2

[14] = tested on: sicklepod (Cassia obtusifolia, CASOB); assay: as above; settings: pre-emerge, 14 days after application, scale 0-100
Outline: as §2

[15] = tested on: velvetleaf (Abutilon theophrasti, ABUTH); assay: as above; settings: pre-emerge, 14 days after application, scale 0-100
Outline: as §2

[16] = tested on: ivyleaf morningglory (Ipomoea hederacea, IPOHE); assay: as above; settings: pre-emerge, 14 days after application, scale 0-100
Outline: as §2

[17] = tested on: large crabgrass (Digitaria sanguinalis, DIGSA); assay: as above; settings: pre-emerge, 14 days after application, scale 0-100
Outline: as §2

[18] = tested on: barnyardgrass (Echinochloa crus-galli, ECHCG); assay: as above; settings: pre-emerge, 14 days after application, scale 0-100
Outline: as §2

[19] = tested on: green foxtail (Setaria viridis, SETVI); assay: as above; settings: pre-emerge, 14 days after application, scale 0-100
Outline: as §2

[20] = tested on: lambsquarters (Chenopodium album, CHEAL); assay: as above; settings: pre-emerge, 14 days after application, scale 0-100
Outline: as §2

[21] = tested on: upland rice (Oryza sp., var. Tebonnet, RICE); assay: Pre-emerge test, crop safety; settings: pre-emerge, 14 days after application, scale 0-100
Outline: (§3)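 Applied at 15–1000 g ai/ha from acetone in 187 l/ha spray volume. Post-emergence applications included 0.25% v/v non-ionic surfactant and reached plants sown 8–21 days before. Pre-emergence applications were incorporated by surface watering. Efficacy or crop damage was rated on a 0–100 scale after 14 days.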

[22] = tested on: field corn (Zea mays L., var. Dekalb 535, CORN); assay: Pre-emerge test, crop safety; settings: pre-emerge, 14 days after application, scale 0-100
Outline: as §3

COc1c(Cl)cc(F)c(-n2c(=O)cc(C(F)(F)F)n(C)c2=O)c1NC(=O)c1c(C)cccc1C [2-124]
SORHA phytotoxicity rating ([1]; 63 g ai/ha): 0
SORHA phytotoxicity rating ([1]; 250 g ai/ha): 0
CASOB phytotoxicity rating ([2]; 63 g ai/ha): 0
CASOB phytotoxicity rating ([2]; 250 g ai/ha): 20
ABUTH phytotoxicity rating ([3]; 63 g ai/ha): 40
ABUTH phytotoxicity rating ([3]; 250 g ai/ha): 95
IPOHE phytotoxicity rating ([4]; 63 g ai/ha): 20
IPOHE phytotoxicity rating ([4]; 250 g ai/ha): 30
DIGSA phytotoxicity rating ([5]; 63 g ai/ha): 0
DIGSA phytotoxicity rating ([5]; 250 g ai/ha): 0
ECHCG phytotoxicity rating ([6]; 63 g ai/ha): 0
ECHCG phytotoxicity rating ([6]; 250 g ai/ha): 0
SETVI phytotoxicity rating ([7]; 63 g ai/ha): 0
SETVI phytotoxicity rating ([7]; 250 g ai/ha): 0
AMARE phytotoxicity rating ([8]; 63 g ai/ha): 30
AMARE phytotoxicity rating ([8]; 250 g ai/ha): 90
CHEAL phytotoxicity rating ([9]; 63 g ai/ha): 30
CHEAL phytotoxicity rating ([9]; 250 g ai/ha): 50
phytotoxicity rating AMARE ([10]; 63 g ai/ha): 40
phytotoxicity rating AMARE ([10]; 250 g ai/ha): 100
RICE phytotoxicity rating (crop damage) ([11]; 63 g ai/ha): 0
RICE phytotoxicity rating (crop damage) ([11]; 250 g ai/ha): 0
CORN phytotoxicity rating (crop damage) ([12]; 63 g ai/ha): 0
CORN phytotoxicity rating (crop damage) ([12]; 250 g ai/ha): 5
phytotoxicity rating SORHA ([13]; 63 g ai/ha): 0
phytotoxicity rating SORHA ([13]; 250 g ai/ha): 0
phytotoxicity rating CASOB ([14]; 63 g ai/ha): 0
phytotoxicity rating CASOB ([14]; 250 g ai/ha): 20
phytotoxicity rating ABUTH ([15]; 63 g ai/ha): 0
phytotoxicity rating ABUTH ([15]; 250 g ai/ha): 80
phytotoxicity rating IPOHE ([16]; 63 g ai/ha): 0
phytotoxicity rating IPOHE ([16]; 250 g ai/ha): 20
phytotoxicity rating DIGSA ([17]; 63 g ai/ha): 0
phytotoxicity rating DIGSA ([17]; 250 g ai/ha): 0
phytotoxicity rating ECHCG ([18]; 63 g ai/ha): 0
phytotoxicity rating ECHCG ([18]; 250 g ai/ha): 0
phytotoxicity rating SETVI ([19]; 63 g ai/ha): 0
phytotoxicity rating SETVI ([19]; 250 g ai/ha): 10
phytotoxicity rating CHEAL ([20]; 63 g ai/ha): 20
phytotoxicity rating CHEAL ([20]; 250 g ai/ha): 80
phytotoxicity rating RICE (crop damage) ([21]; 63 g ai/ha): 0
phytotoxicity rating RICE (crop damage) ([21]; 250 g ai/ha): 10
phytotoxicity rating CORN (crop damage) ([22]; 63 g ai/ha): 0
phytotoxicity rating CORN (crop damage) ([22]; 250 g ai/ha): 0

COc1c(Cl)cc(F)c(-n2c(=O)cc(C(F)(F)F)n(C)c2=O)c1NC(=O)C=Cc1ccccc1F [2-125]
SORHA phytotoxicity rating ([1]; 63 g ai/ha): 30
SORHA phytotoxicity rating ([1]; 250 g ai/ha): 40
CASOB phytotoxicity rating ([2]; 63 g ai/ha): 90
CASOB phytotoxicity rating ([2]; 250 g ai/ha): 100
ABUTH phytotoxicity rating ([3]; 63 g ai/ha): 100
ABUTH phytotoxicity rating ([3]; 250 g ai/ha): 100
IPOHE phytotoxicity rating ([4]; 63 g ai/ha): 100
IPOHE phytotoxicity rating ([4]; 250 g ai/ha): 100
DIGSA phytotoxicity rating ([5]; 63 g ai/ha): 20
DIGSA phytotoxicity rating ([5]; 250 g ai/ha): 40
ECHCG phytotoxicity rating ([6]; 63 g ai/ha): 20
ECHCG phytotoxicity rating ([6]; 250 g ai/ha): 40
SETVI phytotoxicity rating ([7]; 63 g ai/ha): 40
SETVI phytotoxicity rating ([7]; 250 g ai/ha): 60
AMARE phytotoxicity rating ([8]; 63 g ai/ha): 100
AMARE phytotoxicity rating ([8]; 250 g ai/ha): 100
CHEAL phytotoxicity rating ([9]; 63 g ai/ha): 100
CHEAL phytotoxicity rating ([9]; 250 g ai/ha): 100
phytotoxicity rating AMARE ([10]; 63 g ai/ha): 100
phytotoxicity rating AMARE ([10]; 250 g ai/ha): 100
RICE phytotoxicity rating (crop damage) ([11]; 63 g ai/ha): 40
RICE phytotoxicity rating (crop damage) ([11]; 250 g ai/ha): 70
CORN phytotoxicity rating (crop damage) ([12]; 63 g ai/ha): 10
CORN phytotoxicity rating (crop damage) ([12]; 250 g ai/ha): 20
phytotoxicity rating SORHA ([13]; 63 g ai/ha): 20
phytotoxicity rating SORHA ([13]; 250 g ai/ha): 50
phytotoxicity rating CASOB ([14]; 63 g ai/ha): 30
phytotoxicity rating CASOB ([14]; 250 g ai/ha): 70
phytotoxicity rating ABUTH ([15]; 63 g ai/ha): 100
phytotoxicity rating ABUTH ([15]; 250 g ai/ha): 100
phytotoxicity rating IPOHE ([16]; 63 g ai/ha): 0
phytotoxicity rating IPOHE ([16]; 250 g ai/ha): 100
phytotoxicity rating DIGSA ([17]; 63 g ai/ha): 30
phytotoxicity rating DIGSA ([17]; 250 g ai/ha): 90
phytotoxicity rating ECHCG ([18]; 63 g ai/ha): 10
phytotoxicity rating ECHCG ([18]; 250 g ai/ha): 50
phytotoxicity rating SETVI ([19]; 63 g ai/ha): 50
phytotoxicity rating SETVI ([19]; 250 g ai/ha): 90
phytotoxicity rating CHEAL ([20]; 63 g ai/ha): 100
phytotoxicity rating CHEAL ([20]; 250 g ai/ha): 100
phytotoxicity rating RICE (crop damage) ([21]; 63 g ai/ha): 0
phytotoxicity rating RICE (crop damage) ([21]; 250 g ai/ha): 45
phytotoxicity rating CORN (crop damage) ([22]; 63 g ai/ha): 0
phytotoxicity rating CORN (crop damage) ([22]; 250 g ai/ha): 10

COc1c(Cl)cc(F)c(-n2c(=O)cc(C(F)(F)F)n(C)c2=O)c1NC(=O)C=Cc1cccc(Cl)c1 [2-134]
SORHA phytotoxicity rating ([1]; 63 g ai/ha): 10
SORHA phytotoxicity rating ([1]; 250 g ai/ha): 30
CASOB phytotoxicity rating ([2]; 63 g ai/ha): 90
CASOB phytotoxicity rating ([2]; 250 g ai/ha): 100
ABUTH phytotoxicity rating ([3]; 63 g ai/ha): 100
ABUTH phytotoxicity rating ([3]; 250 g ai/ha): 100
IPOHE phytotoxicity rating ([4]; 63 g ai/ha): 100
IPOHE phytotoxicity rating ([4]; 250 g ai/ha): 100
DIGSA phytotoxicity rating ([5]; 63 g ai/ha): 0
DIGSA phytotoxicity rating ([5]; 250 g ai/ha): 30
ECHCG phytotoxicity rating ([6]; 63 g ai/ha): 10
ECHCG phytotoxicity rating ([6]; 250 g ai/ha): 30
SETVI phytotoxicity rating ([7]; 63 g ai/ha): 20
SETVI phytotoxicity rating ([7]; 250 g ai/ha): 60
AMARE phytotoxicity rating ([8]; 63 g ai/ha): 100
AMARE phytotoxicity rating ([8]; 250 g ai/ha): 100
CHEAL phytotoxicity rating ([9]; 63 g ai/ha): 100
CHEAL phytotoxicity rating ([9]; 250 g ai/ha): 100
phytotoxicity rating AMARE ([10]; 63 g ai/ha): 100
phytotoxicity rating AMARE ([10]; 250 g ai/ha): 100
RICE phytotoxicity rating (crop damage) ([11]; 63 g ai/ha): 50
RICE phytotoxicity rating (crop damage) ([11]; 250 g ai/ha): 80
CORN phytotoxicity rating (crop damage) ([12]; 63 g ai/ha): 10
CORN phytotoxicity rating (crop damage) ([12]; 250 g ai/ha): 20
phytotoxicity rating SORHA ([13]; 63 g ai/ha): 0
phytotoxicity rating SORHA ([13]; 250 g ai/ha): 30
phytotoxicity rating CASOB ([14]; 63 g ai/ha): 10
phytotoxicity rating CASOB ([14]; 250 g ai/ha): 30
phytotoxicity rating ABUTH ([15]; 63 g ai/ha): 60
phytotoxicity rating ABUTH ([15]; 250 g ai/ha): 80
phytotoxicity rating IPOHE ([16]; 63 g ai/ha): 20
phytotoxicity rating IPOHE ([16]; 250 g ai/ha): 30
phytotoxicity rating DIGSA ([17]; 63 g ai/ha): 20
phytotoxicity rating DIGSA ([17]; 250 g ai/ha): 90
phytotoxicity rating ECHCG ([18]; 63 g ai/ha): 0
phytotoxicity rating ECHCG ([18]; 250 g ai/ha): 30
phytotoxicity rating SETVI ([19]; 63 g ai/ha): 35
phytotoxicity rating SETVI ([19]; 250 g ai/ha): 80
phytotoxicity rating CHEAL ([20]; 63 g ai/ha): 100
phytotoxicity rating CHEAL ([20]; 250 g ai/ha): 100
phytotoxicity rating RICE (crop damage) ([21]; 63 g ai/ha): 10
phytotoxicity rating RICE (crop damage) ([21]; 250 g ai/ha): 20
phytotoxicity rating CORN (crop damage) ([22]; 63 g ai/ha): 0
phytotoxicity rating CORN (crop damage) ([22]; 250 g ai/ha): 0

Reference: patent publication US6355799B1, “Substituted benzene compounds, process for their preparation, and herbicidal and defoliant compositions containing them” (ISK Americas Incorporated, priority 1997, dated 2002)
